{"source": "patent US20250312320A1", "about": "“METHOD AND TREATMENT FOR OSTEOARTHRITIS AND DISEASES OF CHONDROCYTE HYPERTROPHY” (The Royal Veterinary College, priority 2022, published 2025)", "assay_type_in_all_cases": "cell-based, mouse", "key": {"[1]": {"tested_on": "ATDC5 micromasses", "test": "RNA sequencing of BI1347 treated ATDC5 micromasses", "details": "1 μM vs DMSO", "method": "2.7×10^5 ATDC5 cells were seeded in a 10 μl micromasses and differentiated in the presence of 1 μM BI1347 or DMSO control for 7 days before RNA extraction as previously described. Two wells were pooled per extraction and treatment conditions were set up in triplicate.\nTotal RNA quantification and integrity was determined via Bioanalyzer 2100 (Agilent) and RNA samples with an integrity number above 9.0 were processed for RNA sequencing.\nThe RNA library was formed by polyA capture using poly-T oligo attached magnetic beads and subsequently reverse transcribed for cDNA synthesis and library construction. The library was then sequenced using the Illumina PE150 technology and clean reads with high quality data were taken forward for downstream analysis. Paired-end clean reads were aligned to the Mus Musculus reference genome and reads numbers mapped to each gene. Fragments Per Kilobase of transcript sequence per Millions base pairs sequenced (FPKM) of each gene was calculated based on the length of the gene and reads count mapped to the gene.\nDifferential expression analysis of BI1347 treatment versus DMSO control was performed. Genes with an adjusted P-value≤0.05 and a fold change≥2 were considered differentially expressed.\nCluster analysis was carried out on all the differentially expressed genes in each group and biological replicate using hierarchical clustering to cluster the FPKM values of genes.\nGenes of interest relating to chondrocyte hypertrophy and cartilage homeostasis were identified."}, "[2]": {"tested_on": "ATDC5 micromasses", "test": "Epigenetic library screen on miniaturised ATDC5 micromasses (alcian blue / alizarin red)", "source_text": "An epigenetic library consisting of 226 known epigenetic modulator compounds was used to screen against ATDC5 high density micromass cultures to identify any compounds that have an inhibitory effect on matrix mineralisation (catabolic chondrocyte) whilst maintaining and/or promoting healthy extracellular matrix deposition (anabolic chondrocyte). The opposite may be used for identifying molecules that accelerate endochondral ossification for fracture repair i.e. promotes matrix mineralisation.\nIn the developed screening method, 5.4×10^4 cells in a total volume of 2 μl standard growth media (DMEM-F12, 5% FBS, 1% Ab/Am 10 μg/ml human transferrin, 3×10^−8 M sodium selenite) were seeded onto single wells of a 96-well plate and incubated at 37° C., 5% CO2 in a humidified incubator for 2 hours to allow for cell adherence. 100 μl of differentiation media DMEM-F12, 5% FBS, 1% Ab/Am, 5 μg/ml human transferrin, 1×ITS) containing a single compound was added to each well.\nPlates were seeded in duplicate to allow for observation each compound has on glycosaminoglycan and mineral deposition at the end of the culture. This enabled for one 96-well plate to screen up to 96 compounds individually. Multiple plates were set up at the same time allowing the entire library to be screened in parallel. […]\nOn day 14, culture plates were fixed with 95% ice-cold methanol for 25 minutes and each compound treated well stained with either 1% alcian blue pH 2.5, a stain for glycosaminoglycans indicative of healthy ECM or 1% alizarin red pH 4.2, a stain for mineralisation (calcium) indicative of chondrocyte hypertrophy observed in cartilage disease. Alcian blue stained wells were leached with 8M guanidine hydrochloride and alizarin red leached with 10% cetylpyridinium chloride to quantify staining by absorbance 650 nm and 570 nm, respectively. Leached stain absorbances were plotted on GraphPad Prism for each compound for both alizarin red and alcian blue. To identify hits, the alcian blue:alizarin red ratio was plotted and readings higher than the control group ratios were classified as hits. […]"}, "[3]": {"tested_on": "hypertrophic ATDC5 micromasses", "test": "Metabolic analysis (MitoStress Test, Seahorse XF) of hypertrophic ATDC5 micromasses", "details": "1 μM", "method": "This higher dependency on glycolysis for energy production is linked to enhanced catabolic processes, therefore reducing glycolysis has been proposed as a therapeutic approach for OA (Tan et al. (2022) “A new strategy for osteoarthritis therapy: Inhibition of glycolysis”. Front Pharmacol. 2022 Nov. 10; 13:1057229. doi: 10.3389/fphar.2022.1057229.). To assess energy metabolism of hypertrophic ATDC5 cells in the presence of CDK8i, 2 μl micromasses were seeded onto a Seahorse XF HS Miniplate (Agilent). Micromasses were differentiated in the presence of MSC2530818 as previously described for 1 week before switching to mineralisation media containing MSC2530818 for 24 hours. The MitoStress Test (Agilent) was carried out on hypertrophic micromasses using 1.5 μM oligomycin, 0.5 μM […] and 0.25 μM FCCP which measured real-time extracellular acidification and oxygen consumption rate. Analysis via the Agilent Seahorse Analytics platform basal oxygen consumption rate and glycolysis measurements."}, "[4]": {"details": "compound present 14 days, compared to negative control BI1374 and DMSO"}}}
{"molecule": "CN(C)C(=O)Cn1cc(-c2ccc(-c3cncc4ccccc34)cc2)cn1", "note": "[BI1347]", "values": [{"measurement": "enrichment of downregulated biological process: innate immune response", "setting": "[1]; day 7, Gene Ontology", "value": 3, "unit": "fold"}, {"measurement": "enrichment of downregulated biological process: response to cytokines", "setting": "[1]; day 7, Gene Ontology", "value": 3, "unit": "fold"}, {"measurement": "enrichment of downregulated biological process: response to interferon-beta", "setting": "[1]; day 7, Gene Ontology", "value": 15, "unit": "fold"}, {"measurement": "enrichment of upregulated biological process: Chondrocyte differentiation", "setting": "[1]; day 7, Gene Ontology", "value": 6, "unit": "fold"}, {"measurement": "enrichment of upregulated biological process: Collagen fibril organisation", "setting": "[1]; day 7, Gene Ontology", "value": 10, "unit": "fold"}, {"measurement": "enrichment of upregulated biological process: cartilage development", "setting": "[1]; day 7, Gene Ontology", "value": 5.5, "unit": "fold"}, {"measurement": "enrichment of upregulated biological process: extracellular matrix organisation", "setting": "[1]; day 7, Gene Ontology", "value": 5, "unit": "fold"}, {"measurement": "Log2 Fold Change ACAN", "setting": "[1]; RNA-Seq, day 7", "value": 2.40}, {"measurement": "Log2 Fold Change ADAMT S4", "setting": "[1]; RNA-Seq, day 7", "value": "−1.58"}, {"measurement": "Log2 Fold Change AXIN2", "setting": "[1]; RNA-Seq, day 7", "value": "−2.38"}, {"measurement": "Log2 Fold Change BARX2", "setting": "[1]; RNA-Seq, day 7", "value": 6.42}, {"measurement": "Log2 Fold Change BGLAP", "setting": "[1]; RNA-Seq, day 7", "value": "−1.42"}, {"measurement": "Log2 Fold Change COL2A1", "setting": "[1]; RNA-Seq, day 7", "value": 2.69}, {"measurement": "Log2 Fold Change COL9A3", "setting": "[1]; RNA-Seq, day 7", "value": 4.44}, {"measurement": "Log2 Fold Change COL 13A1", "setting": "[1]; RNA-Seq, day 7", "value": "−4.99"}, {"measurement": "Log2 Fold Change CPA5", "setting": "[1]; RNA-Seq, day 7", "value": 7.57}, {"measurement": "Log2 Fold Change CPM", "setting": "[1]; RNA-Seq, day 7", "value": 6.76}, {"measurement": "Log2 Fold Change F5", "setting": "[1]; RNA-Seq, day 7", "value": 6.76}, {"measurement": "Log2 Fold Change FGFR3", "setting": "[1]; RNA-Seq, day 7", "value": 1.75}, {"measurement": "Log2 Fold Change GALNT17", "setting": "[1]; RNA-Seq, day 7", "value": 6.56}, {"measurement": "Log2 Fold Change GDF5", "setting": "[1]; RNA-Seq, day 7", "value": 2.39}, {"measurement": "Log2 Fold Change GREM1", "setting": "[1]; RNA-Seq, day 7", "value": 1.68}, {"measurement": "Log2 Fold Change IBSP", "setting": "[1]; RNA-Seq, day 7", "value": "−6.06"}, {"measurement": "Log2 Fold Change IHH", "setting": "[1]; RNA-Seq, day 7", "value": "−2.65"}, {"measurement": "Log2 Fold Change IL-6", "setting": "[1]; RNA-Seq, day 7", "value": "−3.23"}, {"measurement": "Log2 Fold Change ISG15", "setting": "[1]; RNA-Seq, day 7", "value": "−6.47"}, {"measurement": "Log2 Fold Change KLK11", "setting": "[1]; RNA-Seq, day 7", "value": 6.45}, {"measurement": "Log2 Fold Change MATN1", "setting": "[1]; RNA-Seq, day 7", "value": 5.88}, {"measurement": "Log2 Fold Change MATN3", "setting": "[1]; RNA-Seq, day 7", "value": 5.87}, {"measurement": "Log2 Fold Change MEF2C", "setting": "[1]; RNA-Seq, day 7", "value": "−1.58"}, {"measurement": "Log2 Fold Change NOG", "setting": "[1]; RNA-Seq, day 7", "value": 2.08}, {"measurement": "Log2 Fold Change NOSTRIN", "setting": "[1]; RNA-Seq, day 7", "value": "−2.00"}, {"measurement": "Log2 Fold Change P2RY10", "setting": "[1]; RNA-Seq, day 7", "value": 6.40}, {"measurement": "Log2 Fold Change PHLDA2", "setting": "[1]; RNA-Seq, day 7", "value": 6.62}, {"measurement": "Log2 Fold Change SMOC3", "setting": "[1]; RNA-Seq, day 7", "value": 2.71}, {"measurement": "Log2 Fold Change SOX5", "setting": "[1]; RNA-Seq, day 7", "value": 1.16}, {"measurement": "Log2 Fold Change SOX6", "setting": "[1]; RNA-Seq, day 7", "value": 1.11}, {"measurement": "Log2 Fold Change SOX8", "setting": "[1]; RNA-Seq, day 7", "value": 2.65}, {"measurement": "Log2 Fold Change TMEM119", "setting": "[1]; RNA-Seq, day 7", "value": "−4.98"}, {"measurement": "log2FoldChange GRHL3", "setting": "[1]; RNA-Seq, day 7", "value": "−7.66"}, {"measurement": "log2FoldChange MX2", "setting": "[1]; RNA-Seq, day 7", "value": "−7.03"}, {"measurement": "log2FoldChange OAS1A", "setting": "[1]; RNA-Seq, day 7", "value": "−7.64"}, {"measurement": "log2FoldChange OAS2", "setting": "[1]; RNA-Seq, day 7", "value": "−11.27"}, {"measurement": "log2FoldChange OAS3", "setting": "[1]; RNA-Seq, day 7", "value": "−7.22"}, {"measurement": "log2FoldChange OASL1", "setting": "[1]; RNA-Seq, day 7", "value": "−10.46"}, {"measurement": "log2FoldChange RSAD2", "setting": "[1]; RNA-Seq, day 7", "value": "−7.12"}, {"measurement": "log2FoldChange SLC36A2", "setting": "[1]; RNA-Seq, day 7", "value": "−8.53"}, {"measurement": "log2FoldChange TRIM30D", "setting": "[1]; RNA-Seq, day 7", "value": "−7.12"}, {"measurement": "glycosaminoglycan (GAG) deposition (alcian blue)", "setting": "[2]; [4]", "value": "promotes glycosaminoglycan (GAG) deposition"}, {"measurement": "mineralisation (alizarin red)", "setting": "[2]; [4]", "value": "reduces mineralisation"}, {"measurement": "alcian blue:alizarin red absorbance ratio (hit identification)", "setting": "[2]; vs window of DMSO control ratios", "value": "modulator of endochondral ossification"}]}
{"molecule": "Cc1n[nH]c2ncc(C(=O)N3CCC[C@H]3c3ccc(Cl)cc3)cc12", "note": "[MSC2530818]", "values": [{"measurement": "decrease in total basal glycolysis (inferred from OCR/ECAR measurements) vs DMSO", "setting": "[3]", "value": 37, "unit": "%"}, {"measurement": "extracellular acidification rate (ECAR) vs DMSO", "setting": "[3]; across the time course measured", "value": "lower than DMSO control"}, {"measurement": "total basal oxygen consumption rate (OCR) vs DMSO", "setting": "[3]; p=0.5085", "value": "no significant difference"}]}
